{"source": "ChEMBL document CHEMBL5532655", "about": "“Discovery of (R)-4-(8-methoxy-2-methyl-1-(1-phenylethy)-1H-imidazo[4,5-c]quinnolin-7-yl)-3,5-dimethylisoxazole as a potent and selective BET inhibitor for treatment of acute myeloid leukemia (AML) guided by FEP calculation” (Eur J Med Chem, 2024)", "key": {"[1]": {"assay": "Half life in Sprague-Dawley rat at 1 mg/kg,iv administration measured upto 24 hrs by LC-MS/MS analysis", "type": "ADME, organism-based", "conditions": "in vivo"}, "[2]": {"assay": "Half life in Sprague-Dawley rat at 10 mg/kg,po administration measured upto 24 hrs by LC-MS/MS analysis", "type": "ADME, organism-based", "conditions": "in vivo"}, "[3]": {"test_system": "MV4-11", "assay": "Induction of apoptosis in human MV4-11 cells assessed as early apoptotic cells at 10 uM incubated for 24 hrs by annexin V-FITC/PI staining based flow cytometric analysis (reference value: 0%)", "type": "functional"}, "[4]": {"test_system": "MV4-11", "assay": "Induction of apoptosis in human MV4-11 cells assessed as necrotic cells at 0.625 uM incubated for 24 hrs by annexin V-FITC/PI staining based flow cytometric analysis (reference value: 2.35 %)", "type": "functional"}, "[5]": {"test_system": "MV4-11", "assay": "Induction of cell cycle arrest in human MV4-11 cells assessed as accumulation of cells at G0/G1 phase at 0.3125 uM incubated for 24 hrs by propidium iodide staining flow cytometric analysis (reference value: 37.64 %)", "type": "functional"}, "[6]": {"test_system": "MV4-11", "assay": "Induction of cell cycle arrest in human MV4-11 cells assessed as accumulation of cells at G0/G1 phase at 1.25 uM incubated for 24 hrs by propidium iodide staining flow cytometric analysis (reference value: 37.64 %)", "type": "functional"}, "[7]": {"test_system": "MV4-11", "assay": "Induction of apoptosis in human MV4-11 cells assessed as downregulation of c-Myc expression at 500 nM hrs by Western blotting analysis", "type": "functional, cell-based", "conditions": "TDE = time-dependent effect"}, "[8]": {"test_system": "MV4-11", "assay": "Induction of apoptosis in human MV4-11 cells assessed as upregulation of PARP expression at 500 nM hrs by Western blotting analysis", "type": "functional, cell-based", "conditions": "TDE = time-dependent effect"}}}
{"compound": "COc1cc2c(cc1-c1c(C)noc1C)ncc1nc(C)n([C@H](C)c3ccccc3)c12", "values": [{"measurement": "half-life", "setting": "[1]", "value": 0.7, "unit": "h"}, {"measurement": "half-life", "setting": "[2]", "value": 2.65, "unit": "h"}, {"measurement": "Activity", "setting": "[3]", "value": 10.04, "unit": "%"}, {"measurement": "Activity", "setting": "[4]", "value": 6, "unit": "%"}, {"measurement": "Activity", "setting": "[5]", "value": 48.98, "unit": "%"}, {"measurement": "Activity", "setting": "[6]", "value": 71.52, "unit": "%"}, {"measurement": "Activity", "setting": "[7]", "value": "Tde"}, {"measurement": "Activity", "setting": "[8]", "value": "Tde"}]}
